Test results from BindingDB's records for doi:10.1021/acs.jmedchem.1c01426 (University of The Pacific, 2021).

Target: Transthyretin (Homo sapiens) (UniProt P02766)
Assay: Induction of stability of human recombinant interleukin 2 assessed as binding affinity of drug-conjugated rIL2 to human TTR in PBS buffer at pH 7.4 measured after 20 mins fluorescence polarization assay

Cc1n[nH]c(C)c1CCCOc1cc(OCCCc2cn(CCOCCOCCOCCOCCNC(=O)C3CCC(CN4C(=O)C=CC4=O)CC3)nn2)cc(C(=O)O)c1 (stereo unspecified)
Kd: 851 nM
